The source of these data is patent US20090233976A1, “Antimitotic Rhizoxin Deritivatives of Burkholderia Rhizoxina, Method for Producing Said Derivatives and Use Thereof” (priority 2005, published 2009).

Series [1] relates to human cancer cell lines. The following applies: a number of human cancer cell lines, particularly vincristin-resistent cells; cited from earlier work.
Series [2] can be described thus: cytotoxicity test on HeLa human cervix carcinoma line. Type of series: cell-based. The following applies: HeLa human cervix carcinoma cells, cytotoxic. An excerpt:
(§1) The inventive substances 1-4 show very strong antiproliferative and cytotoxic effects (e.g. for L-929 mouse fibroblast, K-562 human leukemia cells and HeLa human cervix carcinoma line) and an antifungal activity (e.g. against Glomerella cingulata, Penicillium notatum, Fusarium culmorum, Hamigera avellanea, Aspergillus fumigatus). (See Table 1.)
(§2) The examination of the antiproliferative and cytotoxic properties of the substances 1-4 has been performed via the method described in the literature (H. M. Dahse, B. Schlegel, U. Gräfe, Pharmazie 2001, 56, 489-491). The antifungal activity has been determined via the agar diffusion test. (See Table 2.)

The subject of series [3] is K-562 human leukemia cells. Nature of the series: antiproliferative test on K-562 human leukemia cells. Type of series: cell-based. The following applies: K562.
Excerpt: as §1, §2

The subject of series [4] is L-929 mouse fibroblast. As to the kind of experiment: antiproliferative test on L-929 mouse fibroblasts. In kind it is cell-based. Conditions: L929.
Excerpt: as §1, §2

Values after ≈ are worked out from the molar mass of the structure shown.

With `CO[C@@H](/C(C)=C/C=C/C(C)=C/c1coc(C)n1)[C@@H](C)[C@@H]1C[C@H](O)[C@@]2(C)O[C@@H]2/C=C/[C@@H](C)[C@H]2C[C@H](CC(=O)O2)C[C@@H]2O[C@H]2C(=O)O1` [Rhizoxin], in series [1], the “activity against human cancer cell lines” value is on record as “high activity”.
As to `CC(/C=C/C=C(\C)[C@H](O)[C@@H](C)C1C[C@H](O)C2(C)O[C@@H]2/C=C/[C@@H](C)[C@H](O)C[C@H](CC(=O)O)C/C=C/C(=O)O1)=C\c1coc(C)n1` (some centres unmarked) [Substance 1], it took 90 ng/mL (≈ 147 nM) to reach half-maximal cytotoxicity in series [2] (CC50). The same compound displayed a GI50 in series [3] of 15 ng/mL (≈ 24.4 nM).
Consider `COC(=O)C[C@@H]1C/C=C/C(=O)OC([C@H](C)[C@@H](O)/C(C)=C/C=C/C(C)=C/c2coc(C)n2)C[C@H](O)C2(C)O[C@@H]2/C=C/[C@@H](C)[C@H](O)C1` (some centres unmarked) [Substance 2], for which the CC50 in series [2] worked out at 0.28 ng/mL (≈ 0.446 nM). Also, the figures for the GI50 in series [4] and in series [3] were 50 ng/mL (≈ 79.6 nM) and 0.03 ng/mL (≈ 0.0478 nM), respectively.
In series [2], `COC(=O)C[C@@H]1C/C=C/C(=O)OC([C@H](C)[C@@H](OC)/C(C)=C/C=C/C(C)=C/c2coc(C)n2)C[C@H](O)C2(C)O[C@@H]2/C=C/[C@@H](C)[C@H](O)C1` (some centres unmarked) [Substance 3] displayed a CC50 below 0.03 ng/mL. For the same compound, the GI50 in series [4] was 50 ng/mL (≈ 77.9 nM); in series [3] it was below 0.03 ng/mL.
With `COC(=O)C[C@@H]1C/C=C/C(=O)OC([C@H](C)[C@@H](OC)/C(C)=C/C=C/C(C)=C\c2coc(C)n2)C[C@H](O)C2(C)O[C@@H]2/C=C/[C@@H](C)[C@H](O)C1` (some centres unmarked) [Substance 4], the values for the GI50 in series [4] and in series [3] were 12 ng/mL (≈ 18.7 nM) and below 0.03 ng/mL, respectively.

Usually CC50 stands for the concentration giving 50% cytotoxicity. As usually defined, the GI50 is the concentration at which growth is held to half of that of the control.
